Assay [1] has as its system fresh human PCLS from donors with pulmonary fibrosis. As to the kind of experiment: Secreted biomarkers in fresh PCLS from pulmonary fibrosis donors. As to conditions: nintedanib 300 nM; 48 h. It is filed as cell-based. An excerpt:
Translationally, biomarker-based strategies for assessing aberrant extracellular matrix deposition and remodeling in the context of disease pathogenesis and compound efficacy have become increasingly relevant. For the PCLS gene expression studies, slices were preserved through slow cryogenic freezing of tissue. While this affords experimental flexibility, some physiological relevance is lost over the course of cryostorage and recovery (e.g., immune cell loss). To circumvent this, fresh PCLS from two donors with pulmonary fibrosis were generated and immediately placed into culture. For this experiment, well-established, secreted fibrotic markers that encompass fibrogenesis and tissue remodeling were measured: C3M (a marker of collagen III degradation and an indicant of ECM remodeling and tissue turnover), Pro-C3 (a neo-epitope fragment of collagen III and a marker of active fibrogenesis and fibrosis progression), and Pro-C6 (a neoepitope fragment of COLVIA3 and a marker of remodeling and wound healing). […] Media was then removed and analyzed for biomarker concentration.
PCLS cultures for secreted biomarker analysis were performed at Fraunhofer ITEM (Hanover, Germany) using tissue from pathologist qualified, pulmonary fibrosis patients. Tissue from individual donors and 2 lung regions were collected in accordance with policies approved by the Hanover Medical School ethics committee. Only fibrotic tissue was used for experiments. Region 1 consisted of subpleural tissue and Region 2 of central tissue. For each, lung lobes were filled with low-melting agarose then sectioned at 300 μm on a Krumdiek tissue slicer as described in Hesse et al., 2022. Slices were incubated in DMEM containing penicillin and streptomycin, two slices per region were used. […] Supernatant was collected and shipped to Nordic Bioscience (Herlev, Denmark) for C3M, Pro-C6 and Pro-C3 analysis. Donor information can be found in Additional File 1.

In assay [2] the test system is human precision cut lung slices from donors with pulmonary fibrosis. Briefly: Fibrotic marker mRNA (qPCR) in cryopreserved PCLS from donors with pulmonary fibrosis. As to conditions: 6 days. It is filed as cell-based. An excerpt: Slices were snap frozen and processed for transcript analysis by quantitative PCR. […] Concurrently, we evaluated two well-established, clinical stage antifibrotic mechanisms in this setting: an αvβ1/6 inhibitor (bexotegrast, PLN-74809) and a PDE4B inhibitor (nerandomilast, BI 1015550).
Precision cut lung slices were obtained from Anabios (San Diego, CA) and collected in accordance with their ethics policy (https://anabios.com/ethics-statement/). Donor demographics are available in Additional File 1. Slices were thawed as per vendor instructions. Briefly, PCLS were thawed at 37 °C then transferred to media consisting of DMEM/F12, Antibiotic-Antimytotic, and Penicillin-Streptomycin. PCLS were gently rinsed then transferred to a larger dish. A small tissue sample was excised with a scalpel for immunohistochemistry and qPCR characterization. […] Final concentration of DMSO was 0.1%. Media and compound were replaced every two days for a total of 6 days. At the end of the experiment, slices were collected and snap frozen. Quantitative PCR: RNA was extracted using RNEasy columns. RNA was reverse transcribed using qScript XLT per manufacturer’s instructions. Genes of interest were assessed by qPCR using Perfecta SYBR Green on a StepOne Plus Thermocycler (ABI). Parameters were as follows: 95 °C 30 s, then 45 cycles of 95 °C for 5 s and 60 °C for 30 s.

Assay [3] deals with bleomycin-induced lung fibrosis. As to the kind of experiment: Systemic (subcutaneous) bleomycin mouse model. It is filed as in vivo. As to conditions: 30 mg/kg oral twice a day, therapeutic. As to the method:
Mice were injected subcutaneously with bleomycin (0.1 units/day), on a schedule of 5 days on/2 days off to induce fibrosis. […] Dosing was maintained until study end, at which point lung tissues were collected. The right lobe was snap frozen and processed for collagen analysis for hydroxyproline; the left lobe was sectioned and stained with Masson’s trichrome stain for histological assessment of tissue collagen. This study was conducted by Inotiv (West Lafayette, IN). Forty-four female 9 week old C57Bl/6 mice (Jackson Labs) were provided standard chow (Envigo, Cat #: 8940), housed under standard conditions, and allowed to acclimate for > 3 days prior to enrollment. Prior to start, mice were weighed and placed into balanced enrollment groups. Four days prior to start, mice were anesthetized, dorsal fur shaved and removed with depilatory agent, and two circles (~ 1.5 cm diameter) heat-branded on their dorsal abdomen. Fur was removed as needed for the balance of the study to ensure consistent location of s.c. injections. Beginning on day 0 and through day 26, mice were anesthetized with isoflurane and administered 0.9% NaCl or bleomycin injections (100 µl/injection, s.c.) into each of the circles (2 injections/mouse/d) on a 5 day on/2 day off paradigm. Mice were administered 0.9% NaCl (vehicle) or bleomycin (0.1 U) with bleomycin doses split evenly between the two circles (i.e., 0.05 U/circle). […] Weight measures and health observations were made daily. On day 27, mice were dosed to enable trough blood/plasma collection on day 28, which was collected via retro-orbital approach under isoflurane anesthesia. Following blood collection, mice were administered vehicle or compound on a timetable as appropriate to enable a peak blood collection 2 h postdose. At the time of sacrifice, mice were anesthetized with pentobarbital, a tracheotomy performed and interfaced with a positive pressure ventilator providing 100% O2. The mouse’s chest was then opened, and a needle interfaced with an infusion pump introduced to the right ventricle. […] The lungs were then harvested, immediately immersed in ice-cold 0.9% NaCl, gross dissected and subjected to morphological analyses. Tissue samples will be processed for biochemical and/or histological analyses as described below. Masson’s Trichrome Blue stained slides were subjected to histological analyses using color segmentation analysis for lung fibrosis. Frozen lung samples underwent hydroxyproline analysis as described below. Lung tissue processing – following exsanguination and flushing of the pulmonary circulation to clear blood, the lungs were removed, placed in ice-cold 0.9% NaCl and processed on wet ice. Extraneous tissue was removed and whole lung weight recorded. […]

In assay [4] the target is LPAR1 (Homo sapiens, UniProt Q92633). Briefly: LPA-induced calcium mobilization in transiently transfected HEK293T cells. The class given is cell-based. Also noted: host or cells: HEK293T. Conditions: empirically determined, used for stimulation. The method, then: (§1) We had previously assessed selectivity against LPAR2 and 3 [11]. […] Human LPAR1-6 plasmids were each transiently transfected into HEK293T cells and the EC80 (effective concentration producing 80% maximal effect) for LPA activation empirically determined. Selectivity was then tested in a concentration response paradigm using a 3 h preincubation followed by LPA-induced calcium mobilization.
LPAR1, sequence (Q92633 whole entry): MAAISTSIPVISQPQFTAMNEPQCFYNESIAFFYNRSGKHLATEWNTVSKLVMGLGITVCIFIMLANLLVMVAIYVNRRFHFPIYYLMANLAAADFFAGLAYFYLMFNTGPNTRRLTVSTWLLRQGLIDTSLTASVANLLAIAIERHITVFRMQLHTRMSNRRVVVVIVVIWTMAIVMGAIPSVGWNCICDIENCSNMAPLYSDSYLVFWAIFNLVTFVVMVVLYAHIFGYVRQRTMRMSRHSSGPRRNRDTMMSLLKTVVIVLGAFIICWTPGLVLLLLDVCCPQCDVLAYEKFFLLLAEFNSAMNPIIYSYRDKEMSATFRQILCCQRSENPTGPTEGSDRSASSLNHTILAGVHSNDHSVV
(§2) Plasmids containing human LPAR1-6 were obtained from Origene (Rockville, MD) and maxiprepped at Eton Biosciences (San Diego, CA). Transfection mix was prepared by adding Fugene 6 transfection mix to serum free media and 0.1 µg plasmid. After a 20 m incubation, HEK293T cells (ATCC, Manassas VA) were lifted with Accutase and added to the Fugene mix at a final concentration of 0.5 × 10^4 cells/well. Cells were then plated on black clear bottom 96-well plates and incubated overnight in a 37 °C, 5% CO2 incubator. […] During the last hour of incubation, media was removed and replaced with Fluo-4 NW calcium assay dye prepared as per manufacturer’s recommendations in assay buffer. Agonist plates containing LPA were prepared for individual receptor subytpes using their respective EC80. Calcium mobilization was measured as per manufacturer’s directions on a Flexstation 3 (Molecular Devices, San Jose, CA).
Background: Calcium assays in cells follow changes in intracellular calcium, usually with a dye or a luminescent sensor.

In assay [5] the target is T1, human LPAR3 (Homo sapiens, UniProt Q9UBY5).
T1 construct: host or cells: HEK293T
T1 sequence (Q9UBY5 1-353): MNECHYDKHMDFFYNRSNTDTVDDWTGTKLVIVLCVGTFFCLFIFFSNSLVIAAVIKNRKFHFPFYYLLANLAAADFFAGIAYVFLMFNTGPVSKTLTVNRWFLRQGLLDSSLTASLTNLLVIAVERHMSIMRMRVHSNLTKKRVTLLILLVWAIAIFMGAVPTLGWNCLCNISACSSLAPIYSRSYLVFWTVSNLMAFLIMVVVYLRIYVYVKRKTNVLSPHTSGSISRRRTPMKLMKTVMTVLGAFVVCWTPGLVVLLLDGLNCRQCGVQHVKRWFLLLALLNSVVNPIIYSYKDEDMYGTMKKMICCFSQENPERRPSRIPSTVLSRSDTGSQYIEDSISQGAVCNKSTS
The description is as above. The class given is cell-based. As to conditions: empirically determined, used for stimulation. The method, then:
as §1, §2

Assay [6] deals with T2, human LPAR5 (Homo sapiens, UniProt Q9H1C0).
T2 construct: host or cells: HEK293T
T2 sequence (Q9H1C0 whole entry): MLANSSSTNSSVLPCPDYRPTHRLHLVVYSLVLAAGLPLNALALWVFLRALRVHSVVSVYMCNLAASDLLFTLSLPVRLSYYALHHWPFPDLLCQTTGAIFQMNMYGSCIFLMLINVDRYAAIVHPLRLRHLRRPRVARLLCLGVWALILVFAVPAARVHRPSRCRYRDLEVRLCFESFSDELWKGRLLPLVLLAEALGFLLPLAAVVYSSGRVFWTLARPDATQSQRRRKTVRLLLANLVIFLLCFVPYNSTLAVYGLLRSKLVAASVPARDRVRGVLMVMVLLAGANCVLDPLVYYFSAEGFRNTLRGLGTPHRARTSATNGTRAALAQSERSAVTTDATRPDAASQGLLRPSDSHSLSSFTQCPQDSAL
Described as above. It is filed as cell-based. Conditions: empirically determined, used for stimulation. As to the method: as §1, §2

Assay [7] deals with T3, human LPAR6 (Homo sapiens, UniProt P43657).
T3 construct: host or cells: HEK293T
T3 sequence (P43657 1-344): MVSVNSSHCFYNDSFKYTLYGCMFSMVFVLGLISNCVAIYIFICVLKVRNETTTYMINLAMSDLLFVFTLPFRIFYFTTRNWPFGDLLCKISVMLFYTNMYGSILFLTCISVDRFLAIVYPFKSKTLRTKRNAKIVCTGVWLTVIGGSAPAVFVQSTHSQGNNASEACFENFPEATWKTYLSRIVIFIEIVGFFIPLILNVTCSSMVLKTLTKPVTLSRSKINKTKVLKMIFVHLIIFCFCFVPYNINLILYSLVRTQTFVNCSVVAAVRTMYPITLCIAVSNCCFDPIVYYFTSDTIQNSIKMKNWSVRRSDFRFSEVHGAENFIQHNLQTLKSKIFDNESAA
The assay is described as above. The class given is cell-based. As to conditions: empirically determined, used for stimulation. The method, then:
as §1, §2

In assay [8] the target is T4, human LPAR4 (Homo sapiens, UniProt Q99677).
T4 construct: host or cells: HEK293T
T4 sequence (Q99677 whole entry): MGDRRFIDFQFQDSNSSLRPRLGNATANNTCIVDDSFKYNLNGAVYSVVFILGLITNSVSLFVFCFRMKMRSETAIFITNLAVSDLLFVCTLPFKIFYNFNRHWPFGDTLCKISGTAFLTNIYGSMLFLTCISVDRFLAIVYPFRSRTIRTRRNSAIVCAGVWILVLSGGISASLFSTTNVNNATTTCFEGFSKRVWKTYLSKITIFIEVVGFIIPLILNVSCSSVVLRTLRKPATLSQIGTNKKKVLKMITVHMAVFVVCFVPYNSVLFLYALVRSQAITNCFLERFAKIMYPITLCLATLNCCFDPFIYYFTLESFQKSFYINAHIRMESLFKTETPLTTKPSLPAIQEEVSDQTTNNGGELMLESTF
Described as above. The class given is cell-based. Conditions: empirically determined, used for stimulation. As to the method:
as §1, §2

Assay [9] addresses T5, human LPAR2 (Homo sapiens, UniProt Q9HBW0).
T5 construct: host or cells: HEK293T
Described as above. Conditions: empirically determined, used for stimulation. It is filed as cell-based. The method, then: as §1, §2

T5 sequence (Q9HBW0 whole entry): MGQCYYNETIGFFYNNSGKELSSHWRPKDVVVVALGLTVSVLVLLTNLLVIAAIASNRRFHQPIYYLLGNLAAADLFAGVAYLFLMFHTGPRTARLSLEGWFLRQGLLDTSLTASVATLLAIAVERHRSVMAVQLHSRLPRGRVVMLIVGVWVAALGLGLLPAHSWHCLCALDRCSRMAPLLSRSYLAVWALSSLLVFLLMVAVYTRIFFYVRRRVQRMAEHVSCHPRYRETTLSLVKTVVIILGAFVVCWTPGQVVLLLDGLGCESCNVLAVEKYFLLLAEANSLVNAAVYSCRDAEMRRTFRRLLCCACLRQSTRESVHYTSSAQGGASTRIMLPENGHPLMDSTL

With `COC(=O)c1ccc2c(c1)NC(=O)/C2=C(\Nc1ccc(N(C)C(=O)CN2CCN(C)CC2)cc1)c1ccccc1` [nintedanib, reference compound], in assay [1], the “secreted C3M” value was “significant reduction”, the “secreted Pro-C3” value is on record as “did not show a significant decrease” and the “secreted Pro-C6” value is reported as “reduced”.
On to `COCCN(CCCCc1ccc2c(n1)NCCC2)CC[C@H](Nc1ncnc2ccccc12)C(=O)O` [bexotegrast], for which the “COL3A1 mRNA expression vs vehicle” value in assay [2] (300 nM, P 0.1827 (not significant)) is listed as “reduces”. Besides, the “SERPINE1 mRNA expression vs vehicle” value in assay [2] (300 nM, P 0.4056 (not significant)) is recorded as “reduces”. Moreover, in [2] (300 nM, P 0.8283), the “LPAR1 mRNA expression vs vehicle” value is reported as “unchanged”. Further, in [2] (300 nM, P < 0.05), the “COL1A1 mRNA expression vs vehicle” value is recorded as “significantly less” and the “TIMP-1 mRNA expression vs vehicle” value is “significantly lower”.
Turning to `[O-][S+]1CCc2nc(N3CCC(c4ncc(Cl)cn4)CC3)nc(NC3(CO)CCC3)c21` (centres unmarked) [nerandomilast], the “COL3A1 mRNA expression vs vehicle” value in assay [2] (10 µM, P 0.1621 (not significant)) is listed as “reduces”. Also, the “TIMP1 mRNA expression vs vehicle” value in assay [2] (10 µM, P 0.6976 (not significant)) is on record as “reduces”. Further, the “SERPINE1 mRNA expression vs vehicle” value in assay [2] (10 µM, P 0.8986 (not significant)) is on record as “reduces”. The “COL1A1 mRNA expression vs vehicle” value in assay [2] (10 µM, P < 0.05) is “significantly less”.
Regarding `Cc1noc(-c2ccc(-c3ccc(C4(C(=O)O)CC4)cc3)cc2)c1NC(=O)O[C@H](C)c1ccccc1` [BMS-986020, reference compound], in [3], the “lung hydroxyproline compared to bleomycin/vehicle” value is “no reduction in hydroxyproline”. Also, the “reduction in tissue collagen fraction (TCF), trichrome” value in assay [3] (p = 0.2723) came to 62%.
In the case of “lysophosphatidic acid [LPA, reference compound]”, the “LPA EC80” value in [4] is given as 5 µM; in assay [5], 10 µM; in [6], 1 µM; in assay [7], 13 µM; in assay [8], 10 µM; in assay [9] it was 5 µM.

Source of the values: article PMC12400753 (Respiratory Research, 2025).
